{"source": "ChEMBL document CHEMBL5120927", "about": "“LEGO-Lipophosphonoxins: A Novel Approach in Designing Membrane Targeting Antimicrobials” (J Med Chem, 2022)", "key": {"Staphylococcus aureus [1]": {"tested_on": "Staphylococcus aureus", "assay": "Antibacterial activity against […] Staphylococcus aureus 4460/A assessed as reduction in microbial growth incubated for 24 hrs by microdilution assay", "format": "functional"}, "Staphylococcus aureus [2]": {"tested_on": "Staphylococcus aureus", "assay": "Antibacterial activity against wild type Staphylococcus aureus 4566/A assessed as reduction in microbial growth incubated for 24 hrs by microdilution assay", "format": "functional"}, "Staphylococcus aureus [3]": {"tested_on": "Staphylococcus aureus", "assay": "Antibacterial activity against Staphylococcus aureus ATCC 29213 = CCM 4223 assessed as inhibition of bacterial growth incubated for 24 hrs in presence of BSA by microdilution assay", "format": "functional"}, "Staphylococcus aureus [4]": {"tested_on": "Staphylococcus aureus", "assay": "Antibacterial activity against wild type Staphylococcus aureus 4679/B assessed as reduction in microbial growth incubated for 24 hrs by microdilution assay", "format": "functional"}, "[5]": {"assay": "Toxicity in rabbit assessed as pathological changes in necropsy at 10 to 200 mg/kg, po", "format": "organism-based, Oryctolagus cuniculus", "conditions": "in vivo, dose 10-200 mg/kg"}, "Staphylococcus aureus [6]": {"tested_on": "Staphylococcus aureus", "assay": "Antibacterial activity against wild type Staphylococcus aureus 5079/C assessed as reduction in microbial growth incubated for 24 hrs by microdilution assay", "format": "functional"}, "Staphylococcus aureus [7]": {"tested_on": "Staphylococcus aureus", "assay": "Antibacterial activity against wild type Staphylococcus aureus 4557/A assessed as reduction in microbial growth incubated for 24 hrs by microdilution assay", "format": "functional"}, "Pseudomonas aeruginosa [8]": {"tested_on": "Pseudomonas aeruginosa", "assay": "Antibacterial activity against multidrug-resistant Pseudomonas aeruginosa assessed as reduction in microbial growth incubated for 24 hrs by microdilution assay", "format": "functional"}, "Staphylococcus aureus [9]": {"tested_on": "Staphylococcus aureus", "assay": "Antibacterial activity against wild type Staphylococcus aureus 77/CF assessed as reduction in microbial growth incubated for 24 hrs by microdilution assay", "format": "functional"}, "Staphylococcus aureus [10]": {"tested_on": "Staphylococcus aureus", "assay": "Antibacterial activity against wild type Staphylococcus aureus 4740/B assessed as reduction in microbial growth incubated for 24 hrs by microdilution assay", "format": "functional"}, "Staphylococcus aureus [11]": {"tested_on": "Staphylococcus aureus", "assay": "Antibacterial activity against wild type Staphylococcus aureus 4482/A assessed as reduction in microbial growth incubated for 24 hrs by microdilution assay", "format": "functional"}, "Staphylococcus aureus [12]": {"tested_on": "Staphylococcus aureus", "assay": "Antibacterial activity against wild type Staphylococcus aureus 4968/C assessed as reduction in microbial growth incubated for 24 hrs by microdilution assay", "format": "functional"}, "Staphylococcus aureus [13]": {"tested_on": "Staphylococcus aureus", "assay": "Antibacterial activity against wild type Staphylococcus aureus 4738/B assessed as reduction in microbial growth incubated for 24 hrs by microdilution assay", "format": "functional"}, "Staphylococcus aureus [14]": {"tested_on": "Staphylococcus aureus", "assay": "Antibacterial activity against methicillin resistant Staphylococcus aureus 4591/A assessed as reduction in microbial growth incubated for 24 hrs by microdilution assay", "format": "functional"}, "Staphylococcus aureus [15]": {"tested_on": "Staphylococcus aureus", "assay": "microbe, parasite or virus in culture", "conditions": "4862/C, 24 h", "description": "Antibacterial activity against wild type Staphylococcus aureus 4862/C assessed as reduction in microbial growth incubated for 24 hrs by microdilution assay"}, "Staphylococcus aureus [16]": {"tested_on": "Staphylococcus aureus", "assay": "Antibacterial activity against wild type Staphylococcus aureus 4788/B assessed as reduction in microbial growth incubated for 24 hrs by microdilution assay", "format": "functional"}, "Staphylococcus aureus [17]": {"tested_on": "Staphylococcus aureus", "assay": "Antibacterial activity against […] Staphylococcus aureus 4461/A assessed as reduction in microbial growth incubated for 24 hrs by microdilution assay", "format": "functional"}, "Staphylococcus aureus [18]": {"tested_on": "Staphylococcus aureus", "assay": "Antibacterial activity against […] Staphylococcus aureus 4463/A assessed as reduction in microbial growth incubated for 24 hrs by microdilution assay", "format": "functional"}, "Escherichia coli [19]": {"tested_on": "Escherichia coli", "assay": "Antibacterial activity against Escherichia coli ATCC 25922 = CCM 3954 assessed as inhibition of bacterial growth incubated for 24 hrs by microdilution assay", "format": "functional"}, "Staphylococcus aureus [20]": {"tested_on": "Staphylococcus aureus", "assay": "Antibacterial activity against wild type Staphylococcus aureus 4561/A assessed as reduction in microbial growth incubated for 24 hrs by microdilution assay", "format": "functional"}, "Staphylococcus aureus [21]": {"tested_on": "Staphylococcus aureus", "assay": "Antibacterial activity against wild type Staphylococcus aureus 4883/C assessed as reduction in microbial growth incubated for 24 hrs by microdilution assay", "format": "functional"}, "[22]": {"assay": "Toxicity in rabbit assessed as pathological changes in necropsy at 0.5 to 15 mg/kg, sc", "format": "organism-based, Oryctolagus cuniculus", "conditions": "in vivo, dose 0.5-15 mg/kg"}, "[23]": {"assay": "Gradient chromatographic hydrophobicity index of the compound at pH 3.7 by HPLC analysis", "format": "ADME"}, "[24]": {"assay": "Toxicity in rabbit assessed as clinical sign at 0.5 to 15 mg/kg, sc", "format": "organism-based, Oryctolagus cuniculus", "conditions": "in vivo, dose 0.5-15 mg/kg"}, "[25]": {"assay": "Toxicity in rabbit assessed as clinical sign at 10 to 200 mg/kg, po", "format": "organism-based, Oryctolagus cuniculus", "conditions": "in vivo, dose 10-200 mg/kg"}, "[26]": {"assay": "Hemolytic activity in human RBC assessed as haemoglobin release measured after 3 hr", "format": "toxicity, cell-based, Erythrocyte", "conditions": "red blood cells (erythrocytes)"}, "Staphylococcus aureus [27]": {"tested_on": "Staphylococcus aureus", "assay": "Antibacterial activity against wild type Staphylococcus aureus 4502/A assessed as reduction in microbial growth incubated for 24 hrs by microdilution assay", "format": "functional"}, "Escherichia coli [28]": {"tested_on": "Escherichia coli", "assay": "Antibacterial activity against multidrug-resistant Escherichia coli CE5556 expressing CTX-M-15 assessed as reduction in microbial growth incubated for 24 hrs by microdilution assay", "format": "functional"}, "Staphylococcus aureus [29]": {"tested_on": "Staphylococcus aureus", "assay": "microbe, parasite or virus in culture", "conditions": "5017/C, 24 h", "description": "Antibacterial activity against wild type Staphylococcus aureus 5017/C assessed as reduction in microbial growth incubated for 24 hrs by microdilution assay"}, "Staphylococcus aureus [30]": {"tested_on": "Staphylococcus aureus", "assay": "microbe, parasite or virus in culture", "conditions": "4880/C, 24 h", "description": "Antibacterial activity against wild type Staphylococcus aureus 4880/C assessed as reduction in microbial growth incubated for 24 hrs by microdilution assay"}, "Staphylococcus aureus [31]": {"tested_on": "Staphylococcus aureus", "assay": "Antibacterial activity against wild type Staphylococcus aureus 4504/A assessed as reduction in microbial growth incubated for 24 hrs by microdilution assay", "format": "functional"}, "Escherichia coli [32]": {"tested_on": "Escherichia coli", "assay": "Antibacterial activity against Escherichia coli ATCC 25922 = CCM 3954 assessed as inhibition of bacterial growth incubated for 24 hrs in presence of BSA by microdilution assay", "format": "functional"}, "Staphylococcus aureus [33]": {"tested_on": "Staphylococcus aureus", "assay": "Antibacterial activity against wild type Staphylococcus aureus 78/CF assessed as reduction in microbial growth incubated for 24 hrs by microdilution assay", "format": "functional"}, "Staphylococcus aureus [34]": {"tested_on": "Staphylococcus aureus", "assay": "Antibacterial activity against wild type Staphylococcus aureus 4515/A assessed as reduction in microbial growth incubated for 24 hrs by microdilution assay", "format": "functional"}, "Staphylococcus aureus [35]": {"tested_on": "Staphylococcus aureus", "assay": "Antibacterial activity against Staphylococcus aureus ATCC 29213 = CCM 4223 assessed as inhibition of bacterial growth incubated for 24 hrs by microdilution assay", "format": "functional"}, "Pseudomonas aeruginosa [36]": {"tested_on": "Pseudomonas aeruginosa", "assay": "Antibacterial activity against Pseudomonas aeruginosa ATCC 27853 = CCM 3955 assessed as inhibition of bacterial growth incubated for 24 hrs by microdilution assay", "format": "functional"}, "Enterococcus faecalis": {"tested_on": "Enterococcus faecalis", "assay": "Antibacterial activity against Enterococcus faecalis ATCC 29212 = CCM 4224 assessed as inhibition of bacterial growth incubated for 24 hrs by microdilution assay", "format": "functional"}, "Enterococcus faecium": {"tested_on": "Enterococcus faecium", "assay": "Antibacterial activity against vancomycin resistant Enterococcus faecium 419/ANA assessed as reduction in microbial growth incubated for 24 hrs by microdilution assay", "format": "functional"}, "Staphylococcus aureus [37]": {"tested_on": "Staphylococcus aureus", "assay": "Antibacterial activity against wild type Staphylococcus aureus 4904/C assessed as reduction in microbial growth incubated for 24 hrs by microdilution assay", "format": "functional"}, "Staphylococcus aureus [38]": {"tested_on": "Staphylococcus aureus", "assay": "Antibacterial activity against wild type Staphylococcus aureus 4717/B assessed as reduction in microbial growth incubated for 24 hrs by microdilution assay", "format": "functional"}, "[39]": {"tested_on": "Staphylococcus epidermidis", "assay": "Antibacterial activity against Staphylococcus epidermidis CCM 7221 assessed as inhibition of bacterial growth incubated for 24 hrs by microdilution assay", "format": "functional"}}, "data": [{"smiles": "CCCC/C=C\\CCOP(=O)(CCN(CCCN)CCCN)OCCCCCOP(=O)(CCN(CCCN)CCCN)OCC/C=C\\CCCC.Cl.Cl.Cl.Cl.Cl.Cl", "note": "(stereo unspecified)", "values": [{"measurement": "MIC", "setting": "Staphylococcus aureus [1]", "result": 4, "unit": "µg/mL"}, {"measurement": "MIC", "setting": "Staphylococcus aureus [2]", "result": 4, "unit": "µg/mL"}, {"measurement": "MIC", "setting": "Staphylococcus aureus [3]", "result": 8, "unit": "µg/mL"}, {"measurement": "MIC", "setting": "Staphylococcus aureus [4]", "result": 4, "unit": "µg/mL"}, {"measurement": "Activity", "setting": "[5]", "result": "Non-Toxic"}, {"measurement": "MIC", "setting": "Staphylococcus aureus [6]", "result": 4, "unit": "µg/mL"}, {"measurement": "MIC", "setting": "Staphylococcus aureus [7]", "result": 2, "unit": "µg/mL"}, {"measurement": "MIC", "setting": "Pseudomonas aeruginosa [8]", "result": 32, "unit": "µg/mL"}, {"measurement": "MIC", "setting": "Staphylococcus aureus [9]", "result": 4, "unit": "µg/mL"}, {"measurement": "MIC", "setting": "Staphylococcus aureus [10]", "result": 4, "unit": "µg/mL"}, {"measurement": "MIC", "setting": "Staphylococcus aureus [11]", "result": 4, "unit": "µg/mL"}, {"measurement": "MIC", "setting": "Staphylococcus aureus [12]", "result": 4, "unit": "µg/mL"}, {"measurement": "MIC", "setting": "Staphylococcus aureus [13]", "result": 4, "unit": "µg/mL"}, {"measurement": "MIC", "setting": "Staphylococcus aureus [14]", "result": 2, "unit": "µg/mL"}, {"measurement": "MIC", "setting": "Staphylococcus aureus [15]", "result": 4, "unit": "µg/mL"}, {"measurement": "MIC", "setting": "Staphylococcus aureus [16]", "result": 4, "unit": "µg/mL"}, {"measurement": "MIC", "setting": "Staphylococcus aureus [17]", "result": 4, "unit": "µg/mL"}, {"measurement": "MIC", "setting": "Staphylococcus aureus [18]", "result": 4, "unit": "µg/mL"}, {"measurement": "MIC", "setting": "Escherichia coli [19]", "result": 8, "unit": "µg/mL"}, {"measurement": "MIC", "setting": "Staphylococcus aureus [20]", "result": 4, "unit": "µg/mL"}, {"measurement": "MIC", "setting": "Staphylococcus aureus [21]", "result": 2, "unit": "µg/mL"}, {"measurement": "Activity", "setting": "[22]", "result": "Non-Toxic"}, {"measurement": "CHI", "setting": "[23]", "result": 33.3}, {"measurement": "Activity", "setting": "[24]", "result": "Non-Toxic"}, {"measurement": "Activity", "setting": "[25]", "result": "Non-Toxic"}, {"measurement": "HC50 at 3 h", "setting": "[26]", "result": 70, "unit": "µg/mL"}, {"measurement": "MIC", "setting": "Staphylococcus aureus [27]", "result": 4, "unit": "µg/mL"}, {"measurement": "MIC", "setting": "Escherichia coli [28]", "result": 4, "unit": "µg/mL"}, {"measurement": "MIC", "setting": "Staphylococcus aureus [29]", "result": 4, "unit": "µg/mL"}, {"measurement": "MIC", "setting": "Staphylococcus aureus [30]", "result": 4, "unit": "µg/mL"}, {"measurement": "MIC", "setting": "Staphylococcus aureus [31]", "result": 4, "unit": "µg/mL"}, {"measurement": "MIC", "setting": "Escherichia coli [32]", "result": 4, "unit": "µg/mL"}, {"measurement": "MIC", "setting": "Staphylococcus aureus [33]", "result": 8, "unit": "µg/mL"}, {"measurement": "MIC", "setting": "Staphylococcus aureus [34]", "result": 4, "unit": "µg/mL"}, {"measurement": "MIC", "setting": "Staphylococcus aureus [35]", "result": 2, "unit": "µg/mL"}, {"measurement": "MIC", "setting": "Pseudomonas aeruginosa [36]", "result": 32, "unit": "µg/mL"}, {"measurement": "MIC", "setting": "Enterococcus faecalis", "result": 32, "unit": "µg/mL"}, {"measurement": "MIC", "setting": "Enterococcus faecium", "result": 128, "unit": "µg/mL"}, {"measurement": "MIC", "setting": "Staphylococcus aureus [37]", "result": 4, "unit": "µg/mL"}, {"measurement": "MIC", "setting": "Staphylococcus aureus [38]", "result": 2, "unit": "µg/mL"}, {"measurement": "MIC", "setting": "[39]", "result": 0.5, "unit": "µg/mL"}]}]}
